Results reported in ChEMBL document CHEMBL3763124, “N-Benzylbenzamides: A Novel Merged Scaffold for Orally Available Dual Soluble Epoxide Hydrolase/Peroxisome Proliferator-Activated Receptor γ Modulators” (J Med Chem, 2016).
In brackets after ≈: the same amount, converted by molar mass. Activity calls are given as the source filed them. The calls are words filed in the database; no cut-off is given here.

biological target: T1, Peroxisome proliferator-activated receptor gamma (Homo sapiens, UniProt P37231); conditions: cos-7
T1 sequence (P37231 whole entry): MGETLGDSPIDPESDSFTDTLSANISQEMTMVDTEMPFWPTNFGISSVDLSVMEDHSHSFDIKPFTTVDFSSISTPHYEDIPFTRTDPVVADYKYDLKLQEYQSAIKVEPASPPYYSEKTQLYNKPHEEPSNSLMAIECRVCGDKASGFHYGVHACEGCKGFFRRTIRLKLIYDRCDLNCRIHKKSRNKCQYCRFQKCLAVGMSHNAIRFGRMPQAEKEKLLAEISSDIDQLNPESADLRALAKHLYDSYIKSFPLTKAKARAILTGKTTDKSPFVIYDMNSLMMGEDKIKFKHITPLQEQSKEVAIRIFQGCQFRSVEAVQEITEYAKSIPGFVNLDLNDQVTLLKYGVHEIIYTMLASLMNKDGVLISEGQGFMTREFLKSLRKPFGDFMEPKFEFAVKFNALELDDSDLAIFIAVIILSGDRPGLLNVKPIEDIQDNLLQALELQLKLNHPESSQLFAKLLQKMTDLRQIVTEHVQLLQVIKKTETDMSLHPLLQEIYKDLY
Description: Transactivation of human PPARgamma expressed in African green monkey COS7 cells incubated overnight by dual-glo luciferase reporter gene assay

Structure (SMILES)	EC50
CON(C)C(=O)/C=C/c1ccc(C(=O)NCc2ccccc2C(F)(F)F)cc1	Not Active
O=C(NCc1ccccc1C(F)(F)F)c1ccc(-c2nnn[nH]2)cc1	Not Active
CCOC(=O)C(CC)Cc1ccc(C(=O)NCc2ccccc2Br)cc1 (centres undefined)	Not Active

biological target: T2, Bifunctional epoxide hydrolase 2 (Homo sapiens) (UniProt P34913); test: Inhibition of human recombinant sEH using PHOME as substrate at 10 uM preincubated for 30 mins followed by substrate addition measured for 30 mins by fluorescence-based assay; conditions: not given
T2 sequence (whole entry): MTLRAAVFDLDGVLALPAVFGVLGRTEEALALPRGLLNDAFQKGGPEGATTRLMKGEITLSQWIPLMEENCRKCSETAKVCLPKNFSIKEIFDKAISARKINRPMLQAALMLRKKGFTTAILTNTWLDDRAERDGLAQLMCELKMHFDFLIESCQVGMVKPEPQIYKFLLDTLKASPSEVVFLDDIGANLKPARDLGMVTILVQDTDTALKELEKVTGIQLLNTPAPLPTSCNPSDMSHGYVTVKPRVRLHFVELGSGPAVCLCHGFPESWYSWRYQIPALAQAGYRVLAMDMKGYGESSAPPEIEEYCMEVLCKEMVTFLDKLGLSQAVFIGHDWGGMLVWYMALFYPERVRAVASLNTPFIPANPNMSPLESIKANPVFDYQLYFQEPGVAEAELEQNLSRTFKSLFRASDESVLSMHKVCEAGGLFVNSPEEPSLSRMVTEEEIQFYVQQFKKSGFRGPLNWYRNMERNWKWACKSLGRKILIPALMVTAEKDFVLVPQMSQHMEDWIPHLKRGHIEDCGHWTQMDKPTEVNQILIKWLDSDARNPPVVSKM

Structure (SMILES)	inhibition
CCC(Cc1ccc(C(=O)NCc2ccccc2OC(F)(F)F)cc1)C(=O)O (centres undefined)	23%
CCC(Cc1ccc(C(=O)NCc2ccc(OC)cc2)cc1)C(=O)O (centres undefined)	34%

biological target: T3, Peroxisome proliferator-activated receptor alpha (Homo sapiens) (UniProt Q07869); test: Transactivation of human PPARalpha expressed in African green monkey COS7 cells at 10 uM incubated overnight by dual-glo luciferase reporter assay; type: cell-based; conditions: COS-7
T3 sequence (whole entry): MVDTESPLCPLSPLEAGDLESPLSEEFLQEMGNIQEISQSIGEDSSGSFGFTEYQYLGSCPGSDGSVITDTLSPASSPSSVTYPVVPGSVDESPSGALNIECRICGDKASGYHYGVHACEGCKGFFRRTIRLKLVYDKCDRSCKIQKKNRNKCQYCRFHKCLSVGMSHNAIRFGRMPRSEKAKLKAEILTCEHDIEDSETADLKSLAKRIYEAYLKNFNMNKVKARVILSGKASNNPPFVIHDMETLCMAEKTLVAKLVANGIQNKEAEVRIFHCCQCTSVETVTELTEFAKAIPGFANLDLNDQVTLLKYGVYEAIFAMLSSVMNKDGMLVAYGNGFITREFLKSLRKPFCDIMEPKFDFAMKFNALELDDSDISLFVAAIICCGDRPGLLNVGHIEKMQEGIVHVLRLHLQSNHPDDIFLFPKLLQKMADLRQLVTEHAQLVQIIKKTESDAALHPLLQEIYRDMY

Structure (SMILES)	Activity
CCOC(=O)C(CC)Cc1ccc(C(=O)NCc2ccccc2C)cc1 (centres undefined)	15%
CCOC(=O)C(CC)Cc1ccc(C(=O)NCc2ccc(OC)cc2C(F)(F)F)cc1 (centres undefined)	22%
CCC(Cc1cccc(C(=O)NCc2ccccc2C(F)(F)F)c1)C(=O)O (centres undefined)	34%
CCOC(=O)C(CC)Cc1ccc(C(=O)NCc2ccc(C(F)(F)F)cc2)cc1 (centres undefined)	22%

biological target: T4, Bifunctional epoxide hydrolase 2 (Homo sapiens, UniProt P34913); test: Inhibition of human recombinant sEH using PHOME as substrate preincubated for 30 mins followed by substrate addition measured for 30 mins by fluorescence-based assay; conditions: not given
T4 sequence (P34913 whole entry): T2 sequence (whole entry)

Structure (SMILES)	IC50
CCC(Cc1ccc(C(=O)NCc2ccc(C(F)(F)F)cc2)cc1)C(=O)O (centres undefined)	7200 nM
CCOC(=O)C(CC)Cc1ccc(C(=O)NCc2ccccc2C)cc1 (centres undefined)	900 nM
CCOC(=O)C(CC)Cc1ccc(C(=O)NCc2ccc(OC)cc2C(F)(F)F)cc1 (centres undefined)	30 nM
CCOC(=O)C(CC)Cc1ccc(C(=O)NCc2ccc(C(F)(F)F)cc2)cc1 (centres undefined)	570 nM
CCC(Cc1ccc(C(=O)NCc2ccc(Oc3ccccc3)cc2)cc1)C(=O)O (centres undefined)	12000 nM
CCOC(=O)C(CC)Cc1ccc(C(=O)NCc2ccccc2Br)cc1 (centres undefined)	4000 nM

biological target: T5, Peroxisome proliferator-activated receptor alpha (Homo sapiens, UniProt Q07869); conditions: not given
T5 sequence (Q07869 whole entry): T3 sequence (whole entry)

Structure (SMILES)	EC50
CCC(Cc1ccc(C(=O)NCc2ccc(C(F)(F)F)cc2)cc1)C(=O)O (centres undefined)	7 µM
CCOC(=O)C(CC)Cc1ccc(C(=O)NCc2ccc(Oc3ccccc3)cc2)cc1 (centres undefined)	4 µM
CCC(Cc1ccc(C(=O)NCc2ccc(Oc3ccccc3)cc2)cc1)C(=O)O (centres undefined)	0.9 µM

test system: not listed separately; test: Solubility of the compound in water by microplate reader analysis; type: physicochemical; conditions: not given

Structure (SMILES)	solubility
O=C(NCc1ccccc1C(F)(F)F)c1ccc(-c2nnn[nH]2)cc1	375 µM (≈ 130 µg/mL)
O=C(O)c1ccc(-c2ccc(C(=O)NCc3ccccc3C(F)(F)F)cc2)cc1	3.75 µM (≈ 1.5 µg/mL)
CCC(Cc1ccc(C(=O)NCc2ccccc2OC(F)(F)F)cc1)C(=O)O (centres undefined)	375 µM (≈ 148 µg/mL)
CCOC(=O)C(CC)Cc1ccc(C(=O)NCc2ccccc2Br)cc1 (centres undefined)	20 µM (≈ 8.37 µg/mL)
CCC(Cc1ccc(C(=O)NCc2ccc(OC)cc2)cc1)C(=O)O (centres undefined)	375 µM (≈ 128 µg/mL)

biological target: T6, Peroxisome proliferator-activated receptor gamma (Homo sapiens) (UniProt P37231); test: Transactivation of human PPARgamma expressed in African green monkey COS7 cells at 10 uM incubated overnight by dual-glo luciferase reporter gene assay; type: cell-based; conditions: COS-7
T6 sequence (whole entry): T1 sequence (P37231 whole entry)

Structure (SMILES)	Activity
CON(C)C(=O)C1CC1c1ccc(C(=O)NCc2ccccc2C(F)(F)F)cc1 (centres undefined)	30%
O=C(O)c1ccc(-c2ccc(C(=O)NCc3ccccc3C(F)(F)F)cc2)cc1	30%
O=C(O)c1cccc(-c2ccc(C(=O)NCc3ccccc3C(F)(F)F)cc2)c1	28%

biological target: T5, Peroxisome proliferator-activated receptor alpha; conditions: cos-7
Description: Transactivation of human PPARalpha expressed in African green monkey COS7 cells incubated overnight by dual-glo luciferase reporter gene assay

Structure (SMILES)	EC50
CON(C)C(=O)/C=C/c1ccc(C(=O)NCc2ccccc2C(F)(F)F)cc1	Not Active
O=C(NCc1ccccc1C(F)(F)F)c1ccc(-c2nnn[nH]2)cc1	Not Active
CON(C)C(=O)C1CC1c1ccc(C(=O)NCc2ccccc2C(F)(F)F)cc1 (centres undefined)	Not Active
O=C(O)c1ccc(-c2ccc(C(=O)NCc3ccccc3C(F)(F)F)cc2)cc1	Not Active
CCC(Cc1ccc(C(=O)NCc2ccccc2OC(F)(F)F)cc1)C(=O)O (centres undefined)	Not Active
CCOC(=O)C(CC)Cc1ccc(C(=O)NCc2ccccc2Br)cc1 (centres undefined)	Not Active
O=C(O)c1cccc(-c2ccc(C(=O)NCc3ccccc3C(F)(F)F)cc2)c1	Not Active
CCC(Cc1ccc(C(=O)NCc2ccc(OC)cc2)cc1)C(=O)O (centres undefined)	Not Active

biological target: T7, Peroxisome proliferator-activated receptor delta (Homo sapiens, UniProt Q03181); test: Transactivation of human PPARdelta expressed in African green monkey COS7 cells incubated overnight by dual-glo luciferase reporter gene assay; type: cell-based; conditions: cos-7
T7 sequence (Q03181 whole entry): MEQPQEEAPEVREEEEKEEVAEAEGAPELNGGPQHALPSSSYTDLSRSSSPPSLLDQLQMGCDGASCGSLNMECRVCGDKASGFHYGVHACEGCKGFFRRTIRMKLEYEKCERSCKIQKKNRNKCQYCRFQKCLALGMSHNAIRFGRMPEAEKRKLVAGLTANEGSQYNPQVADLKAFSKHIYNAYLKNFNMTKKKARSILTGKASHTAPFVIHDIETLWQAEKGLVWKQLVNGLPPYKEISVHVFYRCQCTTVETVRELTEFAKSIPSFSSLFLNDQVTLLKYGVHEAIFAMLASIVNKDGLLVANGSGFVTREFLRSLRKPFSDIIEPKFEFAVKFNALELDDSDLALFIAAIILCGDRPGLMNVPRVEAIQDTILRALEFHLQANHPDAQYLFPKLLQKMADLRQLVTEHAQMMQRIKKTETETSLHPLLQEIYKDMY

Structure (SMILES)	EC50
CCC(Cc1ccc(C(=O)NCc2ccc(C(F)(F)F)cc2)cc1)C(=O)O (centres undefined)	Not Active
CON(C)C(=O)/C=C/c1ccc(C(=O)NCc2ccccc2C(F)(F)F)cc1	Not Active
O=C(NCc1ccccc1C(F)(F)F)c1ccc(-c2nnn[nH]2)cc1	Not Active
CCOC(=O)C(CC)Cc1ccc(C(=O)NCc2ccccc2C)cc1 (centres undefined)	Not Active
CCOC(=O)C(CC)Cc1ccc(C(=O)NCc2ccc(OC)cc2C(F)(F)F)cc1 (centres undefined)	Not Active
CON(C)C(=O)C1CC1c1ccc(C(=O)NCc2ccccc2C(F)(F)F)cc1 (centres undefined)	Not Active
CCOC(=O)C(CC)Cc1ccc(C(=O)NCc2ccc(Oc3ccccc3)cc2)cc1 (centres undefined)	Not Active
CCC(Cc1cccc(C(=O)NCc2ccccc2C(F)(F)F)c1)C(=O)O (centres undefined)	Not Active
CCOC(=O)C(CC)Cc1ccc(C(=O)NCc2ccc(C(F)(F)F)cc2)cc1 (centres undefined)	Not Active
O=C(O)c1ccc(-c2ccc(C(=O)NCc3ccccc3C(F)(F)F)cc2)cc1	Not Active
CCC(Cc1ccc(C(=O)NCc2ccccc2OC(F)(F)F)cc1)C(=O)O (centres undefined)	Not Active
CCOC(=O)C(CC)Cc1ccc(C(=O)NCc2ccccc2Br)cc1 (centres undefined)	Not Active
O=C(O)c1cccc(-c2ccc(C(=O)NCc3ccccc3C(F)(F)F)cc2)c1	Not Active
CCC(Cc1ccc(C(=O)NCc2ccc(OC)cc2)cc1)C(=O)O (centres undefined)	Not Active

biological target: T3, Peroxisome proliferator-activated receptor alpha (Homo sapiens); test: Transactivation of human PPARalpha expressed in African green monkey COS7 cells incubated overnight by dual-glo luciferase reporter assay relative to GW7647; type: cell-based; conditions: COS-7

Structure (SMILES)	Emax
CON(C)C(=O)/C=C/c1ccc(C(=O)NCc2ccccc2C(F)(F)F)cc1	inactive
O=C(NCc1ccccc1C(F)(F)F)c1ccc(-c2nnn[nH]2)cc1	inactive
CON(C)C(=O)C1CC1c1ccc(C(=O)NCc2ccccc2C(F)(F)F)cc1 (centres undefined)	inactive
CCOC(=O)C(CC)Cc1ccc(C(=O)NCc2ccc(Oc3ccccc3)cc2)cc1 (centres undefined)	110%
O=C(O)c1ccc(-c2ccc(C(=O)NCc3ccccc3C(F)(F)F)cc2)cc1	inactive
CCC(Cc1ccc(C(=O)NCc2ccccc2OC(F)(F)F)cc1)C(=O)O (centres undefined)	inactive
CCOC(=O)C(CC)Cc1ccc(C(=O)NCc2ccccc2Br)cc1 (centres undefined)	inactive
O=C(O)c1cccc(-c2ccc(C(=O)NCc3ccccc3C(F)(F)F)cc2)c1	inactive
CCC(Cc1ccc(C(=O)NCc2ccc(OC)cc2)cc1)C(=O)O (centres undefined)	inactive

biological target: T8, Peroxisome proliferator-activated receptor delta (Homo sapiens) (UniProt Q03181); test: Transactivation of human PPARdelta expressed in African green monkey COS7 cells at 10 uM incubated overnight by dual-glo luciferase reporter assay; type: cell-based; conditions: COS-7
T8 sequence (whole entry): T7 sequence (Q03181 whole entry)

Structure (SMILES)	Emax
CON(C)C(=O)/C=C/c1ccc(C(=O)NCc2ccccc2C(F)(F)F)cc1	inactive
O=C(NCc1ccccc1C(F)(F)F)c1ccc(-c2nnn[nH]2)cc1	inactive
CON(C)C(=O)C1CC1c1ccc(C(=O)NCc2ccccc2C(F)(F)F)cc1 (centres undefined)	inactive
CCC(Cc1cccc(C(=O)NCc2ccccc2C(F)(F)F)c1)C(=O)O (centres undefined)	inactive
O=C(O)c1ccc(-c2ccc(C(=O)NCc3ccccc3C(F)(F)F)cc2)cc1	inactive
CCC(Cc1ccc(C(=O)NCc2ccc(Oc3ccccc3)cc2)cc1)C(=O)O (centres undefined)	20%
O=C(O)c1cccc(-c2ccc(C(=O)NCc3ccccc3C(F)(F)F)cc2)c1	inactive
